Reference: patent US20060069132A1, “Azolecarboxamide herbicides” (priority 2004, published 2006)

What was measured:
johnsongrass = experiment: Test C pre-/postemergence herbicide test; format: in vivo, Sorghum halepense
How it was run: (§1)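 Pre/post spray; non-phytotoxic solvent + surfactant. Post-timing 1–4 leaves, 2–18 cm. Read-out: visual % control vs untreated, day 12–14, greenhouse.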

pigweed = experiment: Test C pre-/postemergence herbicide test; format: in vivo, Amaranthus retroflexus
How it was run: as §1

large crabgrass = experiment: Test C pre-/postemergence herbicide test; format: in vivo, Digitaria sanguinalis
How it was run: as §1

soybean = experiment: Test C pre-/postemergence herbicide test; format: in vivo, Glycine max
How it was run: as §1

goosegrass = experiment: Test C pre-/postemergence herbicide test; format: in vivo, Eleusine indica
How it was run: as §1

rice = experiment: Test C flooded paddy test; format: in vivo, Oryza sativa
How it was run: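 Injury scored visually against controls on a 0 (no effect) to 100 (complete control) scale, 12 to 14 days after treatment in greenhouse. Flooded paddy plants treated at 2-leaf stage; postemergence plants at 1- to 4-leaf stage, 2 to 18 cm tall.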

Surinam grass = experiment: Test C pre-/postemergence herbicide test; format: in vivo, Urochloa decumbens
How it was run: as §1

kochia = experiment: Test C pre-/postemergence herbicide test; format: in vivo, Kochia scoparia
How it was run: as §1

velvetleaf = experiment: Test C pre-/postemergence herbicide test; format: in vivo, Abutilon theophrasti
How it was run: as §1

[1] = 62 g ai/ha, preemergence, scale 0 to 100
[2] = 250 g ai/ha, scale 0-100, preemergence
[3] = 500 g ai/ha, scale 0 to 100 (0 no effect, 100 complete control), visual, 12 to 14 days, preemergence
[4] = 31 g ai/ha, preemergence, scale 0 to 100
[5] = 125 g ai/ha, scale 0-100, preemergence
[6] = Postemergence, 125 g ai/ha, scale 0 to 100, 0 no effect, 100 complete control
[7] = postemergence, 31 g ai/ha, scale 0 to 100
[8] = postemergence, 62 g ai/ha, scale 0 to 100
[9] = postemergence, 125 g ai/ha, scale 0 to 100

CCc1nn(C(C)(C)C)nc1C(=S)Nc1cccc(C(=S)N(C)C)c1 [Compound 396]
70: Rice plant response rating (rice; 125 g ai/ha, scale 0 to 100 (0 no effect, 100 complete control))
75: Plant response rating (0 = no effect, 100 = complete control), Soybean (soybean; 125 g ai/ha, preemergence) | Rice plant response rating (rice; 250 g ai/ha, scale of 0 to 100, 0 is no effect, 100 is complete control)
100: Plant response rating (0 = no effect, 100 = complete control), Johnsongrass (johnsongrass; 125 g ai/ha, preemergence) | Plant response rating, Johnsongrass (johnsongrass; [2]) | Plant response rating, Johnsongrass (johnsongrass; [3]) | Plant response rating, Pigweed (pigweed; [1]) | Plant response rating (0 = no effect, 100 = complete control), Pigweed (pigweed; 125 g ai/ha, preemergence) | Plant response rating, Pigweed (pigweed; [2]) | Plant response rating, Pigweed (pigweed; [3]) | Plant response rating, Crabgrass, Large (large crabgrass; [1]) | Plant response rating (0 = no effect, 100 = complete control), Crabgrass, Large (large crabgrass; 125 g ai/ha, preemergence) | Plant response rating, Crabgrass, Large (large crabgrass; [2]) | Plant response rating, Crabgrass, Large (large crabgrass; [3]) | Plant response rating, Soybean (soybean; [2]) | Plant response rating, Soybean (soybean; [3]) | Plant response rating (0 = no effect, 100 = complete control), Goosegrass (goosegrass; 125 g ai/ha, preemergence) | Plant response rating, Goosegrass (goosegrass; [2]) | Plant response rating, Goosegrass (goosegrass; [3]) | Plant response rating, Surinam Grass (Surinam grass; [2]) | Plant response rating, Surinam Grass (Surinam grass; [3]) | Plant response rating, Kochia (kochia; [2]) | Plant response rating, Kochia (kochia; [3]) | Plant response rating, Velvetleaf (velvetleaf; [2]) | Plant response rating, Velvetleaf (velvetleaf; [3])
95: Plant response rating, Johnsongrass (johnsongrass; [1]) | Plant response rating, Goosegrass (goosegrass; [1]) | Plant response rating (0 = no effect, 100 = complete control), Surinam Grass (Surinam grass; 125 g ai/ha, preemergence)
65: Plant response rating, Surinam Grass (Surinam grass; [1])
0: Plant response rating, Soybean (soybean; [1]) | Plant response rating, Kochia (kochia; [1]) | Plant response rating, Velvetleaf (velvetleaf; [1])
45: Plant response rating (0 = no effect, 100 = complete control), Kochia (kochia; 125 g ai/ha, preemergence) | Plant response rating (0 = no effect, 100 = complete control), Velvetleaf (velvetleaf; 125 g ai/ha, preemergence)
80: Plant response rating, Rice (rice; 500 g ai/ha, visual rating after 12 to 14 days, scale 0 to 100 (0 no effect, 100 complete control))
60: Rice plant response rating (rice; 62 g ai/ha, scale 0 to 100)

C=Cn1nc(C(C)(C)C)cc1C(=O)Nc1cccc(C(=O)NCC)c1 [Compound 33]
90: Plant response rating, Johnsongrass (johnsongrass; [6]) | Plant response rating, Johnsongrass (johnsongrass; [8]) | Plant response rating, Pigweed (pigweed; [7]) | Plant response rating, Crabgrass, Large (large crabgrass; [4]) | Plant response rating, Soybean (soybean; [9]) | Plant response rating, Goosegrass (goosegrass; [5]) | Plant response rating, Kochia (kochia; [6]) | Plant response rating, Kochia (kochia; [8]) | Plant response rating, Velvetleaf (velvetleaf; [8])
80: Plant response rating, Johnsongrass (johnsongrass; [5]) | Plant response rating, Soybean (soybean; [7]) | Plant response rating, Soybean (soybean; [8]) | Plant response rating, Kochia (kochia; [4])
70: Plant response rating, Johnsongrass (johnsongrass; [7])
20: Plant response rating, Johnsongrass (johnsongrass; [4]) | Plant response rating (0 = no effect, 100 = complete control), Johnsongrass (johnsongrass; 62 g ai/ha, preemergence) | Plant response rating, Goosegrass (goosegrass; [4]) | Plant response rating, Surinam Grass (Surinam grass; [4]) | Plant response rating (0 = no effect, 100 = complete control), Surinam Grass (Surinam grass; 62 g ai/ha, preemergence)
30: Plant response rating, Pigweed (pigweed; [4])
50: Plant response rating (0 = no effect, 100 = complete control), Pigweed (pigweed; 62 g ai/ha, preemergence) | Plant response rating, Crabgrass, Large (large crabgrass; [6]) | Plant response rating, Surinam Grass (Surinam grass; [9]) | Plant response rating, Surinam Grass (Surinam grass; [7]) | Plant response rating, Surinam Grass (Surinam grass; [8])
60: Plant response rating (0 = no effect, 100 = complete control), Goosegrass (goosegrass; 62 g ai/ha, preemergence) | Plant response rating, Kochia (kochia; [7]) | Plant response rating, Velvetleaf (velvetleaf; [7])
40: Plant response rating, Crabgrass, Large (large crabgrass; [7]) | Plant response rating, Goosegrass (goosegrass; [6]) | Plant response rating, Goosegrass (goosegrass; [7]) | Plant response rating, Goosegrass (goosegrass; [8])
100: Plant response rating, Pigweed (pigweed; [9]) | Plant response rating, Pigweed (pigweed; [8]) | Plant response rating (0 = no effect, 100 = complete control), Crabgrass, Large (large crabgrass; 62 g ai/ha, preemergence) | Plant response rating, Crabgrass, Large (large crabgrass; [5]) | Plant response rating (0 = no effect, 100 = complete control), Kochia (kochia; 62 g ai/ha, preemergence) | Plant response rating, Kochia (kochia; [5])
0: Plant response rating, Soybean (soybean; [4]) | Plant response rating (0 = no effect, 100 = complete control), Soybean (soybean; 62 g ai/ha, preemergence) | Plant response rating, Velvetleaf (velvetleaf; [4])
